This is an account of results in patent US20230125052A1, “RED BLOOD CELL-DERIVED VESICLE” (Imperial College Innovations Limited, priority 2019, published 2023).

Data set [1] deals with fibrinogen mediated platelet aggregation in platelet-rich plasma (active αIIbβ3). The class given is cell-based, sheep. As to the method: Binding affinity of free liner RGD or cRGD peptides to activated platelets can be indicated by a half maximal inhibitory concentration (IC50) value, which is the peptide concentration required to inhibit fibrinogen mediated platelet aggregation in platelet-rich plasma (PRP) by 50%. PRP was incubated with various concentrations of liner RGD or cRGD peptides in the presence of platelet agonist, thrombin (4 µM) for 30 min under stirring. The platelet aggregation percentage was determined with a GloMax-Multi Microplate Multimode Reader (Promega, USA) by measuring the absorbance at 595 nm. The platelet aggregation percentage was calculated by the following equation: […]
where Ao is the initial absorbance at 595 nm, and At is the absorbance at 595 nm after incubation.
The percentage platelet aggregation inhibition was calculated by the following equation: […]
where PAPBS is the platelet aggregation in the PRP control in the presence of thrombin and PBS only (no peptides), and PAs is the platelet aggregation in the PRP sample in the presence of thrombin and peptides.

Data set [2] concerns the target active GPIIb-IIIa (αIIbβ3) integrin on thrombin-activated platelets (sheep). The experiment in a line: cell-based or functional assay.
Data set [3] concerns ADP-induced platelet aggregation. The experiment in a line: In vitro antiplatelet aggregation assay, ADP-induced. The class given is cell-based, sheep. Particulars: Ovis aries, equivalent ASA concentration of 0.1 mM, read-out: Percentage of inhibition of ADP-induced platelet aggregation. Here is the method: (§1) The final platelet count was adjusted to 2 × 10^8 platelets/mL. 150 µL of PRP was seeded in 96-well plates and was incubated with 50 µL of various formulations: ASA-RBCVs, ASA-RGD-RBCVs, ASA-cRGD-PEG-RBCVs or ASA (equivalent ASA concentration of 0.1 mM) in the presence of 10 µL platelet agonist thrombin in PBS (4 µM), arachidonic acid (AA) in PBS (400 µM) or adenosine diphosphate (ADP) in PBS (15 µM). After incubation under shaking at 37° C. for 40 min, the absorbance at 595 nm was measured by a GloMax-Multi Microplate Multimode Reader (Promega, USA). The aggregation percentage was calculated by the equation 2. From the platelet aggregation percentage and comparison to aggregation of PBS without samples, the inhibition percentage was calculated by the equation 3.

The test system of data set [4] is AA-induced platelet aggregation. The experiment in a line: In vitro antiplatelet aggregation assay, arachidonic acid (AA)-induced. The class given is cell-based, sheep. Particulars: Ovis aries, equivalent ASA concentration of 0.1 mM, read-out: Percentage of inhibition of AA-induced platelet aggregation. As to the method: as §1
Data set [5] deals with thrombin-induced platelet aggregation. The experiment in a line: In vitro antiplatelet aggregation assay, thrombin-induced. Type of data set: cell-based, sheep. Particulars: Ovis aries, equivalent ASA concentration of 0.1 mM, read-out: Percentage of inhibition of thrombin-induced platelet aggregation. Here is the method:
as §1

Data set [6] deals with thrombin-induced thrombus in sheep blood. The experiment in a line: In vitro antithrombotic assay (wet thrombus weight). The class given is cell-based. Particulars: equivalent ASA 0.1 mM, 37° C., 30 min. Here is the method:
200 µL of sheep blood was added into a weighted tube. Then, 50 µL specific formulation (PBS, ASA-RBCVs, ASA-RGD-RBCVs, ASA-cRGD-PEG-RBCVs or ASA at an equivalent ASA concentration of 0.1 mM) was added in the tube, and then 10 µL of thrombin in PBS (4 µM) was added in each well and incubated at 37° C. under shaking for 30 min. Finally, the un-clotted blood was removed to obtain the weight of the wet clotted thrombus.

A further data set relates to fibrin clot. The data set is described as follows: Fibrin clot lysis, agar plate assay, in the presence of activated platelets. The class given is biochemical. Particulars: equivalent tPA 1 mg mL^-1, 37° C. overnight, activated platelets present. As to the method: Fibrin clot lysis by the tPA-loaded vesicles was measured by an agar plate assay. Briefly, 300 mg agar was dissolved in buffer mixture (15 mL of 0.05 M Tris-HCl buffer at pH 7.2 and 5 mL of 0.025 M CaCl2 solution). 50 mg Fibrinogen was dissolved in 10 mL of Tris-HCl buffer (0.05 M, pH 7.2). The agar solution was mixed with the fibrinogen solution, and then 10 µL thrombin (4.0 µM) was added under stirring for 1 min. The resulting mixture was spread carefully on a transparent plastic plate and homogeneous gels were obtained at 37° C. after 3h. […] were created in each plate and 5 µL of plasminogen solution (1 mg mL^-1) was then added into each sample well. PBS buffer, tPA-RBCVs, tPA-RGD-RBCVs, tPA-cRGD-PEG-RBCVs and free tPA (equivalent tPA dose of 1 mg mL^-1) were added into respective sample wells and incubated at 37° C. overnight. The area of the lysed zone in each well was measured to evaluate the degree of fibrin clot lysis.

The subject of a further data set is Halo blood clots. The experiment in a line: Blood clot lysis in a Halo blood clot model. The class given is cell-based, sheep. Particulars: after 45 min of treatment. As to the method:
Briefly, a clotting mixture (5 mL of buffer containing 66 mM Tris-HCl, 130 mM NaCl and 45 mM CaCl2; 5 µL of 1 µM thrombin, pH 7.4) was freshly prepared. In a 96-well microplate, 5 µL of this clotting mixture was placed on one side of the well bottom, then 15 µL of whole blood was added on the opposite side of the well bottom. Clotting was initiated by mixing the two drops with a pipette tip in a circular motion to form a homogenous halo shape of blood around the edge of the well bottom, leaving the centre area empty. The plate was covered and incubated at 37° C. for 30 min. After clot formation, 80 µL tPA-RBCVs, tPA-RGD-RBCVs, tPA-cRGD-PEG-RBCVs and free tPA (equivalent tPA dose of 1 mg mL^-1) were added simultaneously into respective wells containing halo clots. The dissolution of the halo clots was determined with a plate reader GloMax-Multi Microplate Multimode Reader (Promega, USA) by measuring absorbance at 495 nm caused by RBCs progressively covering the centre of the well after clot degradation at 37° C. […] The percentage of clot dissolution was calculated according to the following equation: […]
where As is the absorbance of well at 495 nm after incubation with samples; An is the absorbance of negative control well at 495 nm; Ap is the absorbance of positive control well at 495 nm.

The conditions of data set [7]: in circulation, background; cited from earlier work.
The target of data set [8] is T1, active GPIIb-IIIa (αIIbβ3) integrin on thrombin-activated platelets (sheep, UniProt A0ACI6RZ73 32-1033; A0ACI6S117 125-886). The experiment in a line: cell-based or functional assay.
T1 sequence (chain, as listed by the source, chain 1 of 2): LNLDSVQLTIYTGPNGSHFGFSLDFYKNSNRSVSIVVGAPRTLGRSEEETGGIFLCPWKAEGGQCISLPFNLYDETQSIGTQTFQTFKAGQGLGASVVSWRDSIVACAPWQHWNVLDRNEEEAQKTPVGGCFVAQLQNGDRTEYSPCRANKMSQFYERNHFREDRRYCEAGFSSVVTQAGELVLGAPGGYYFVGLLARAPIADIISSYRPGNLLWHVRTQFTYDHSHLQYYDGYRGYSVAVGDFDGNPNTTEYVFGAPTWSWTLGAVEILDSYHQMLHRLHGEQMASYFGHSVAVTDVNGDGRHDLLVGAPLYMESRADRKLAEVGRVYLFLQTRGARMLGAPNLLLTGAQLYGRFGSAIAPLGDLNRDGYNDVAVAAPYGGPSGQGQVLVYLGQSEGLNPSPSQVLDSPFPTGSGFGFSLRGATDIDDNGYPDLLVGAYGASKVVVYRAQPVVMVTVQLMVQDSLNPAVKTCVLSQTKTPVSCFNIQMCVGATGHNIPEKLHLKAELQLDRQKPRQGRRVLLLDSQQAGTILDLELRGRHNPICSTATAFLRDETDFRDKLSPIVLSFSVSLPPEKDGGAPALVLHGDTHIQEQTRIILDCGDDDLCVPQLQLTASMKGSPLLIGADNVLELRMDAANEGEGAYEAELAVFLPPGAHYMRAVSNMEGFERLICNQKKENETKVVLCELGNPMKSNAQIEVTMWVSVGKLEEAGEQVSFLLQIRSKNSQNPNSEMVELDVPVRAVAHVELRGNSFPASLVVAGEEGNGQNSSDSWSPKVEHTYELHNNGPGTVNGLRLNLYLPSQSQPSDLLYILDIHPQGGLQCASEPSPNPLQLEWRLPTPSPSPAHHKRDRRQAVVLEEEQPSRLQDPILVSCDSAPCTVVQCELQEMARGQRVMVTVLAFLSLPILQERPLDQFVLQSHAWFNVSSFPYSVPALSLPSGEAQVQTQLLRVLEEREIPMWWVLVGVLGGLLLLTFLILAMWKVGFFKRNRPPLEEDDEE
T1 sequence (chain, as listed by the source, chain 2 of 2): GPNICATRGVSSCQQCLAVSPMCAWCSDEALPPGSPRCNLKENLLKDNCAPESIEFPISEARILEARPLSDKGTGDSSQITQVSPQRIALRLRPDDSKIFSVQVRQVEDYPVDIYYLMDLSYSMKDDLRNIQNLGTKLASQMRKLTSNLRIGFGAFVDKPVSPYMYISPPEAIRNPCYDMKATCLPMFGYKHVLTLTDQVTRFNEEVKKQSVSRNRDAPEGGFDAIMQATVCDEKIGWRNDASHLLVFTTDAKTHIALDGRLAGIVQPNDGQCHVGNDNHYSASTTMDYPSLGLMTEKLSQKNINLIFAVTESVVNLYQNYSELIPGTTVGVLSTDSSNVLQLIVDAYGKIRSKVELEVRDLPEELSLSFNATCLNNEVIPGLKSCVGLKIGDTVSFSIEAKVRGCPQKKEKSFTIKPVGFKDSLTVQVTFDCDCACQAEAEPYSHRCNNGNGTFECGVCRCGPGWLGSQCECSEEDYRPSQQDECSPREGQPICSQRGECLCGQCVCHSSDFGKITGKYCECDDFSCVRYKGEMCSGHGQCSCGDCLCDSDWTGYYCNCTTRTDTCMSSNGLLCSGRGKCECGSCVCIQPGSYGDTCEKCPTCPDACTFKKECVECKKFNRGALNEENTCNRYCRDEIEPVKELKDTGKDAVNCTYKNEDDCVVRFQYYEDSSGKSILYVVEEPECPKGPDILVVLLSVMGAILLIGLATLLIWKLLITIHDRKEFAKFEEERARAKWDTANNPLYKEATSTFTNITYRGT
The target in data set [9] is T1, active GPIIb-IIIa (αIIbβ3) integrin on …. The experiment in a line: flow cytometry on thrombin-activated platelets; reference is uncoated tPA-RBCVs. As to the method:
2 mL platelets (1.0 × 10⁸ mL⁻¹) were seeded in 6-well plates and activated by incubation with 100 µL thrombin (1 U/mL) for at least 20 min. Inactivated platelets or thrombin-activated platelets were incubated with various FITC-labelled tPA-loaded vesicle formulations (equivalent tPA concentration of 0.2 mg mL⁻¹). Free vesicles, which were not attached to platelets, were removed by centrifugation. Data for 1.0 × 10⁴ gated events were collected and analysed using a BD Fortessa II flow cytometer.
A general note: Flow cytometry measures light scatter and fluorescence of single cells or particles in a stream.

Data set [10] has the same target. The data set is described as follows: MFI of confocal images of thrombin-activated platelets; reference is uncoated tPA-RBCVs. Here is the method: 2 mL platelets (1.0 × 10⁸ mL⁻¹) were seeded in 6-well plates, with a collagen-coated glass coverslip on the bottom of each well. After 30 min, 100 µL thrombin (1 U/mL) was added onto the platelet-adhered coverslips to ensure activation of platelets at least 20 min. Inactivated platelets or thrombin-activated platelets were incubated with various FITC-labelled tPA-loaded vesicle formulations (equivalent tPA concentration of 0.2 mg mL⁻¹). The platelets were then fixed with 4.0% formaldehyde for 30 min, followed by rinsing with pH 7.4 PBS buffer for three times. Subsequently, the resulting slides were mounted and observed with a Leica SP₅ MP confocal microscope.

The target is the same in data set [11]. The data set is described as follows: flow cytometry on thrombin-activated platelets; reference is uncoated RBCVs. Here is the method: 2 mL platelets (1.0 × 10⁸ mL⁻¹) were seeded in 6-well plates and activated by incubation with 100 µL thrombin (1 U/mL) for at least 20 min. Inactivated platelets or thrombin-activated platelets were incubated with various NBD-labelled RBCV formulations (equivalent NBD-PE of 1.0 × 10⁻⁷ mol). Free vesicles, which were not attached to platelets, were removed by centrifugation. Data for 1.0 × 10⁴ gated events were collected and analysed using a BD Fortessa II flow cytometer.

Data set [12] shares this target. The data set is described as follows: MFI of confocal images of thrombin-activated platelets; reference is uncoated RBCVs.

Square brackets hold non-standard residues; d marks the D form. Side chains are listed from the residue outwards. Ends that are not written are not given here. maleimidomethyl‑cyclohexane‑carboxamide = linker coupling the Cys to DSPE; DSPE = DSPE lipid anchoring the peptide in the vesicle membrane Where only a bound is given, the exact number is not on record here.

active GPIIb-IIIa (αIIbβ3) integrin on thrombin-activated platelets (sheep), sequence (chain, as listed by the source, chain 1 of 2): as the sequence (chain, as listed by the source, chain 1 of 2) above
active GPIIb-IIIa (αIIbβ3) integrin on thrombin-activated platelets (sheep), sequence (chain, as listed by the source, chain 2 of 2): as the sequence (chain, as listed by the source, chain 2 of 2) above

By IC50 is commonly meant the concentration at which inhibition is half-maximal. Read a low IC50 as greater potency in that assay. The molecule `CC(C)[C@@H]1NC(=O)[C@@H](Cc2ccccc2)NC(=O)[C@H](CC(=O)O)NC(=O)CNC(=O)[C@H](CCCNC(=N)N)NC1=O` [cRGD, cyclo(Arg-Gly-Asp-d-Phe-Val)] came in with an IC50 in data set [1] of 460 µM.
As to linear RGD peptide (Arg-Gly-Asp), free, the IC50 (peptide concentration for 50% inhibition of fibrinogen-mediated platelet aggregation in PRP, thrombin 4 µM) in data set [2] was determined as 382 µM.
The inhibition is the percentage by which the read-out fell short of the control. For `CC(=O)Oc1ccccc1C(=O)O` [ASA, acetylsalicylic acid], the values for the inhibition at 100 µM in data set [3], in data set [4] and in data set [5] were 27.6 ± 2.71%, 23.8 ± 4.26% and 20.5 ± 1.04%, respectively. Also, the Thrombus weight in data set [6] was 49.27 ± 10.73 mg.
As for “tPA: Tissue plasminogen activator (tPA, alteplase), product of Boehringer Ingelheim”, the “Area of fibrin lysis ring” value in the data set on fibrin clot is given as 1.18 ± 0.17 cm^2. In addition, the “Blood clot lysis (in words)” value in the data set with Halo blood clots was “complete blood clot lysis”. Besides, the Half-life in [7] was 2~6 min.
As for cyclo(RGD[dF]V) [cyclo(Arg-Gly-Asp-d-Phe-Val), free], the “IC50 (peptide concentration for 50% inhibition of fibrinogen-mediated platelet aggregation in PRP, thrombin 4 µM)” value in data set [8] is 0.46 mM.

B1: tPA-loaded, RGD-coated red blood cell-derived vesicles (tPA-RGD-RBCVs) (other)
peptide: C([maleimidomethyl‑cyclohexane‑carboxamide-DSPE])RGD
modifications: also: many copies anchored in red blood cell-derived vesicle membrane, tPA encapsulated
notes: also called FITC-labelled tPA-RGD-RBCVs; fibrinogen-mimicking RBCV
On to B1, for which the “fold increase in fluorescence intensity against FITC-labelled tPA-RBCVs” value in data set [9] is over 4 fold. Also, the “fold enhancement in binding affinity (MFI) against tPA-RBCVs” value in data set [10] was about 4 fold.

B2: RGD-coated red blood cell-derived vesicles without drug (RGD-RBCVs) (other)
peptide: C([maleimidomethyl‑cyclohexane‑carboxamide-DSPE])RGD
notes: Vesicle labelled with NBD-PE for flow cytometry and CLSM, or with NBD-PE and Rhod-PE for FRET; also called NBD-labelled RGD-RBCVs
For B2, the “fold increase in fluorescence intensity against NBD-labelled RBCVs” value in [11] is over 4 fold. Further, in data set [12], the “fold enhancement in binding affinity (MFI) against RBCVs” value is about 4 fold.
